Results reported in ChEMBL document CHEMBL1159353, “New stigmastane sterols from Ajuga salicifolia” (J Nat Prod, 2003).
Values after ≈ are worked out from the molar mass of the structure shown. Active and inactive are the calls of the source. The rule behind the calls is not given here.

Assays:
Jurkat = assay: Cytotoxicity against human Jurkat cells at 20 ug/ml; format: functional, cell-based
KB = assay: Cytotoxicity against human KB cells; format: functional, cell-based

In the case of CC[C@H]1C[C@H]([C@@H](C)C2[C@@H](O)C[C@H]3C4=CC[C@H]5C[C@@H](O[C@@H]6O[C@H](CO)[C@@H](O)[C@H](O)[C@H]6O[C@@H]6O[C@H](CO)[C@@H](O)[C@H](O)[C@H]6O)CC[C@]5(C)[C@H]4CC[C@]23C)O[C@]1(C)CO[C@@H]1O[C@H](CO)[C@@H](O)[C@H](O)[C@H]1O[C@@H]1O[C@H](CO)[C@@H](O)[C@H](O)[C@H]1O (stereo partly specified), the Activity (Jurkat) is reported as “inactive”.

CC[C@H]1[C@H](O)[C@H]([C@@H](CO)[C@@]2(O)[C@@H](O)C[C@H]3C4=CC[C@H]5C[C@@H](O[C@@H]6O[C@H](CO)[C@@H](O)[C@H](O)[C@H]6O)CC[C@]5(C)[C@H]4CC[C@@]32C)O[C@]1(C)CO [AJUGASALICIOSIDE F] was tested, and the IC50 (KB) was 13 µg/mL (≈ 19.4 µM) and the Activity (Jurkat) was “inactive”.

With CC[C@H]1[C@H](O)[C@H]([C@@H](CO)[C@@]2(O)[C@@H](O)C[C@H]3C4=CC[C@H]5C[C@@H](O)CC[C@]5(C)[C@H]4CC[C@@]32C)O[C@]1(C)CO [AJUGASALICIGENIN] the IC50 (KB) was 1 µg/mL (≈ 1.97 µM) and the Activity (Jurkat) was “inactive”.

For CC[C@H]1[C@H](O)[C@H]([C@@H](C)[C@@]2(O)[C@@H](O)C[C@H]3C4=CC[C@H]5C[C@@H](O[C@@H]6O[C@H](COC(C)=O)[C@@H](O)[C@H](O)[C@H]6O)CC[C@]5(C)[C@H]4CC[C@@]32C)O[C@]1(C)COC(C)=O, the Activity (Jurkat) was “inactive”.
